Measured values taken from EP4745135A1 (Gluetacs Therapeutics (Shanghai) Co., Ltd., priority 2023, dated 2025).

Legend:
[1] = test system: Human multiple myeloma cell (MM.1S); experiment: Tumor cell proliferation inhibition (CellTiter-Meiluncell luminescent cell viability assay); details: for inhibition at 0.01 µM / inhibition at 0.5 µM: Homo sapiens, MM1.S, 96 h; for inhibition at 0.01 µM: read-out: Inhibition Rate at 10 nM (%); for inhibition at 0.5 µM: read-out: Inhibition Rate at 500 nM (%)
[2] = test system: Human multiple myeloma peripheral blood B lymphocyte cell (RPMI-8226); experiment: as above; details: RPMI-8226, 96 h; for inhibition at 0.01 µM: read-out: Inhibition Rate at 10 nM (%); for inhibition at 0.5 µM: read-out: Inhibition Rate at 500 nM (%)
[3] = target: T1, human Cereblon WT GST-tagged protein (Homo sapiens, UniProt Q96SW2); experiment: CRBN-binding affinity, HTRF (CEREBLON BINDING kit); details: for inhibition at 0.5 µM: read-out: Inhibition Rate at 0.5 µM (%); for inhibition at 2 µM: read-out: Inhibition Rate at 2 µM (%)
T1 construct: purchased CISBIO 64BDCRBNPEH
T1 sequence (Q96SW2 whole entry): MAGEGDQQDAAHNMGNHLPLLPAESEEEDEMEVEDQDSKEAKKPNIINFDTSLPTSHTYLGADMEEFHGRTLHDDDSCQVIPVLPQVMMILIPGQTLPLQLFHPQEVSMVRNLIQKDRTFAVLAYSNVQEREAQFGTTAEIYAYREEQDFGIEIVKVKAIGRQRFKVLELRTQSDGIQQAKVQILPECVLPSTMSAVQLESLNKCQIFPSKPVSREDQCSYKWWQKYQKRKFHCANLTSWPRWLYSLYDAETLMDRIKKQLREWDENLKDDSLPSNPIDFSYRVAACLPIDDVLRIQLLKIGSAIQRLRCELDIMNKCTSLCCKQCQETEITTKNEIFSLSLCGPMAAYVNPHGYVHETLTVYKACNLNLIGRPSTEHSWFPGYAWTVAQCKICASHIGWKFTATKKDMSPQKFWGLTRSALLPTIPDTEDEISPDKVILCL

GSPT1 = experiment: Western blot, degradation of substrate protein in hPBMCs; type: cell-based, Human
[4] = test system: Human myeloid monocytic leukemia cell (MV-4-11); experiment: Tumor cell proliferation inhibition (CellTiter-Meiluncell luminescent cell viability assay); details: MV4-11, 96 h; for inhibition at 0.01 µM: read-out: Inhibition Rate at 10 nM (%); for inhibition at 0.5 µM: read-out: Inhibition Rate at 500 nM (%)
Procedure: (§1) The tumor cells used herein were cultured in a cell culture medium listed in table 2 at 37°C in an incubator with 5% CO2. Prior to experimentation, all cell lines used were correctly identified by STR profiling, and tested negative for mycoplasma contamination using a mycoplasma detection kit through routine screenings.
(§2) The IC50 values of the compounds of the present disclosure (including the compounds in Table 1 and Examples) were determined using the CellTiter-Meiluncell Luminescent Cell Viability Assay Kit from Dalian Meilun Biotech Co., Ltd. The detailed procedure is as follows: Tumor cells were seeded in 96-well cell culture plates at the densities specified in Table 3. On the following day, the test compounds of the present disclosure were subjected to serial dilution. The dilution can be performed according to one of the following two methods: • (1) The first dilution method: The test compounds of the present disclosure (including the compounds in Table 1 and Examples) were subjected to 5-fold serial dilutions starting from a highest concentration of 2000 µM, resulting in a total of 9 concentrations from high to low (2000, 400, 80, 16, 3.2, 0.64, 0.128, 0.0256, 0.00512 µM). Subsequently, 0.5 µL of the test compound dilution was transferred into the 96-well plate containing the cells, with each well containing 100 µL of cell culture medium. […] Into the 96-well plate, the diluted test compounds and corresponding detection reagents were added, resulting in final test compound concentrations of 500 nM and 10 nM, respectively. The experimental procedure is described below using the diluted 2 µM test compound as an example.
(§3) 0.5 µL of the aforementioned diluted compound of the present disclosure (including the compounds in Table 1 and Examples) was added to the seeded cells in 100 µL of medium, yielding a final test compound concentration of 10 nM. After the cells were treated with the compounds of the present disclosure for a specified period, the cell viability assay reagent was added to the culture medium according to the kit's instructions to determine cell viability. […] All controls were treated using the same procedure as the compounds of the present disclosure. The growth inhibition curves for the compounds of the present disclosure were plotted using Prism GraphPad software, and the IC50 values were calculated therefrom.

[5] = test system: Human breast cancer cell (MCF-7); experiment: as above; details: MCF7, 96 h; for inhibition at 0.01 µM: read-out: Inhibition Rate at 10 nM (%); for inhibition at 0.5 µM: read-out: Inhibition Rate at 500 nM (%)
Procedure: as §1, §2, §3

[6] = test system: Human acute myeloid leukemia cell line: Kasumi-1; experiment: as above; details: Kasumi 1, 96 h; for inhibition at 0.01 µM: read-out: Inhibition Rate at 10 nM (%); for inhibition at 0.5 µM: read-out: Inhibition Rate at 500 nM (%)
Procedure: as §1, §2, §3

[7] = test system: Human T lymphocytic leukemia cell line: Jurkat; experiment: as above; details: 96 h; for inhibition at 0.01 µM: read-out: Inhibition Rate at 10 nM (%); for inhibition at 0.5 µM: read-out: Inhibition Rate at 500 nM (%)
[8] = test system: Human T cell acute lymphoblastic leukemia cell (CCRF-CEM); experiment: as above; details: 96 h; for inhibition at 0.01 µM: read-out: Inhibition Rate at 10 nM (%); for inhibition at 0.5 µM: read-out: Inhibition Rate at 500 nM (%)
IKZF3 = target: T2, IKZF3 (Homo sapiens, UniProt Q96SW2+Q9UKT9); experiment: Western blot, degradation of substrate protein in hPBMCs; type: cell-based
T2 construct: effects of the compounds of the present disclosure on the expression of target proteins in cells; endogenous in cells; host or cells: human PBMCs (Milecell Biotechnologies)
T2 sequence (Q9UKT9 whole entry): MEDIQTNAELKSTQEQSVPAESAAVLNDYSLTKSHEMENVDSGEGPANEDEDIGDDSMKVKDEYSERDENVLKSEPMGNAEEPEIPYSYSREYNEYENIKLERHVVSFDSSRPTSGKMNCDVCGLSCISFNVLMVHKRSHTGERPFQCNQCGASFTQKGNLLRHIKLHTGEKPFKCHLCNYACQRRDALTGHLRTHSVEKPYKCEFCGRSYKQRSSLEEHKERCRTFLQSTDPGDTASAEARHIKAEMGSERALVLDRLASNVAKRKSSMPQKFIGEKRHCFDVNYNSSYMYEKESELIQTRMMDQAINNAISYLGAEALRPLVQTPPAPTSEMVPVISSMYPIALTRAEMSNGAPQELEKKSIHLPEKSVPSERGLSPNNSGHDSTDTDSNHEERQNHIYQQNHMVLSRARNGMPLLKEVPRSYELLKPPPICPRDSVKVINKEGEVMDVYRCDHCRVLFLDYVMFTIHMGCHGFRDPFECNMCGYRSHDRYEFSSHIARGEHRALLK
T2 sequence (Q96SW2 whole entry): as the sequence (Q96SW2 whole entry) above
T2 sequence (Q16531 whole entry partner): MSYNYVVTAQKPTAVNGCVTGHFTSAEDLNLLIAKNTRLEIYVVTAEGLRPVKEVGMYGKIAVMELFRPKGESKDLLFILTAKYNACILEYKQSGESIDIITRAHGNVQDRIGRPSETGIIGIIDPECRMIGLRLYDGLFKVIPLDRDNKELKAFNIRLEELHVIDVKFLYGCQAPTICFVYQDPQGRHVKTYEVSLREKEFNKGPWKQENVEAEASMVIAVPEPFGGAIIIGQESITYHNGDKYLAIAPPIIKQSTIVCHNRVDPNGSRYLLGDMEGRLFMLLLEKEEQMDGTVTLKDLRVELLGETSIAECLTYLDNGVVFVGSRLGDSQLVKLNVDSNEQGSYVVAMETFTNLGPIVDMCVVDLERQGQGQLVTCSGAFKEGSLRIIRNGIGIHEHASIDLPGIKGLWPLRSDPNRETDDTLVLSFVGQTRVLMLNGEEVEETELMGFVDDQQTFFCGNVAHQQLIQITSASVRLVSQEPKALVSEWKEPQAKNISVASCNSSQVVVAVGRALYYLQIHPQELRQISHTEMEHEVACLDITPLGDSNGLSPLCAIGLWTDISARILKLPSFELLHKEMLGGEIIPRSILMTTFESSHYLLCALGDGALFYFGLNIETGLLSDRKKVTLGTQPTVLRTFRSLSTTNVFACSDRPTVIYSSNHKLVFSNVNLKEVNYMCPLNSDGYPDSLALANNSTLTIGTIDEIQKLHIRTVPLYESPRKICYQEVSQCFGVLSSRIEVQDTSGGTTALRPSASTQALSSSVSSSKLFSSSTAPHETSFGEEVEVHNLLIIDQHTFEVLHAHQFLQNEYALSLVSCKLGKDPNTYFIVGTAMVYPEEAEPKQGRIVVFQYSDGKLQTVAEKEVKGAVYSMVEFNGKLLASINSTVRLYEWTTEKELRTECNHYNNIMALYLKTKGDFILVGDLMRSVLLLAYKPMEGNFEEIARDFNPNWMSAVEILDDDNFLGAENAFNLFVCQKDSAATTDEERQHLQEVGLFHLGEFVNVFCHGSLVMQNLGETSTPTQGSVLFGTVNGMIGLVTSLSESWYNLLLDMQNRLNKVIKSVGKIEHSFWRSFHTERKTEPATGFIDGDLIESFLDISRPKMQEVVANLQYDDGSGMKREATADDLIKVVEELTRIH

IKZF1 = target: T3, IKZF1 (Homo sapiens, UniProt Q13422+Q96SW2); experiment: as above; type: cell-based
T3 construct: effects of the compounds of the present disclosure on the expression of target proteins in cells; endogenous in cells; host or cells: human PBMCs (Milecell Biotechnologies)
T3 sequence (Q13422 whole entry): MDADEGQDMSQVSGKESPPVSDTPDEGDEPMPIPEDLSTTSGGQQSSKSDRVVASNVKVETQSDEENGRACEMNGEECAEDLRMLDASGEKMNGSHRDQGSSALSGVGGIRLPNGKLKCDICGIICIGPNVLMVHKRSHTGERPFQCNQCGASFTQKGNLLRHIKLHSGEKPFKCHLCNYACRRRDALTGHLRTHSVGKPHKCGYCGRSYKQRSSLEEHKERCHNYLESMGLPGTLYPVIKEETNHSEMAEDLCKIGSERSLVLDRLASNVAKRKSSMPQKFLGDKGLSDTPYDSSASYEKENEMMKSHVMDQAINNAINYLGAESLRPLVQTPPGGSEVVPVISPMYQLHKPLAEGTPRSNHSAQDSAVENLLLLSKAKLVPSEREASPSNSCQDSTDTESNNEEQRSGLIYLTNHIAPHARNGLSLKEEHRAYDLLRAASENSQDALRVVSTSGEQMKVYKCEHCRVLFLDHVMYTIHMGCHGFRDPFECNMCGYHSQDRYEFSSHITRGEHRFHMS
T3 sequence (Q96SW2 whole entry): as the sequence (Q96SW2 whole entry) above
T3 sequence (Q16531 whole entry partner): as the sequence (Q16531 whole entry partner) above

CK1α = target: T4, CK1α (Homo sapiens, UniProt P48729+Q96SW2); experiment: as above; type: cell-based
T4 construct: effects of the compounds of the present disclosure on the expression of target proteins in cells; endogenous in cells; host or cells: human PBMCs (Milecell Biotechnologies)
T4 sequence (P48729 whole entry): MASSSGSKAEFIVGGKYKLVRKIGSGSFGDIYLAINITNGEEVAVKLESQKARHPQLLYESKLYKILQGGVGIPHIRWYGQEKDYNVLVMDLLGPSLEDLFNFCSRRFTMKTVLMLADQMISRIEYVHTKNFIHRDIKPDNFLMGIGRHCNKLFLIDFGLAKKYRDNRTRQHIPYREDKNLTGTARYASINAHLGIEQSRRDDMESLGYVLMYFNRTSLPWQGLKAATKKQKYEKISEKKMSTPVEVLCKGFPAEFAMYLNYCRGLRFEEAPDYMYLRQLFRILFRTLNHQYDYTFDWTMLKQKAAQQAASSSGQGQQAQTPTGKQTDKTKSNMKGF
T4 sequence (Q96SW2 whole entry): as the sequence (Q96SW2 whole entry) above
T4 sequence (Q16531 whole entry partner): as the sequence (Q16531 whole entry partner) above

WEE1 = target: T5, WEE1 (Homo sapiens, UniProt P30291+Q96SW2); experiment: as above; type: cell-based
T5 construct: effects of the compounds of the present disclosure on the expression of target proteins in cells; endogenous in cells; host or cells: human PBMCs (Milecell Biotechnologies)
T5 sequence (P30291 whole entry): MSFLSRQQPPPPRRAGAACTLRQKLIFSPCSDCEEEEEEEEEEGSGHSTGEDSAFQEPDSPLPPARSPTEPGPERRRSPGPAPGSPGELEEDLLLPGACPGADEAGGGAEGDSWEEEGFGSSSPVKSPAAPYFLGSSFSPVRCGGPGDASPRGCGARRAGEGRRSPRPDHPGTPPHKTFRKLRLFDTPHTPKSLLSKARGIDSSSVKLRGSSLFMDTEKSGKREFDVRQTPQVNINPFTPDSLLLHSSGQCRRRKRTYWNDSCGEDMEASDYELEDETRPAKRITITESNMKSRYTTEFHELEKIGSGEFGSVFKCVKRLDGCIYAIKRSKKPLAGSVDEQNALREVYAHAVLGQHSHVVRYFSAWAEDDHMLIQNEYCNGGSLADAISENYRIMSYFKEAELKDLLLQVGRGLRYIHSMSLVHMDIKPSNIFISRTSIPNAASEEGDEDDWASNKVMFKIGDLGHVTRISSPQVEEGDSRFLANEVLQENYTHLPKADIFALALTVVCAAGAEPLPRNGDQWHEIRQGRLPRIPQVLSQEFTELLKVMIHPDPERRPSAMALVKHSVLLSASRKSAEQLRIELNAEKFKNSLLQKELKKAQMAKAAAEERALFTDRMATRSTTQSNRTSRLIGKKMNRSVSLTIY
T5 sequence (Q96SW2 whole entry): as the sequence (Q96SW2 whole entry) above
T5 sequence (Q16531 whole entry partner): as the sequence (Q16531 whole entry partner) above

IKZF2 = target: T6, IKZF2 (Homo sapiens, UniProt Q96SW2+Q9UKS7); experiment: as above; type: cell-based
T6 construct: effects of the compounds of the present disclosure on the expression of target proteins in cells; endogenous in cells; host or cells: human PBMCs (Milecell Biotechnologies)
T6 sequence (Q9UKS7 whole entry): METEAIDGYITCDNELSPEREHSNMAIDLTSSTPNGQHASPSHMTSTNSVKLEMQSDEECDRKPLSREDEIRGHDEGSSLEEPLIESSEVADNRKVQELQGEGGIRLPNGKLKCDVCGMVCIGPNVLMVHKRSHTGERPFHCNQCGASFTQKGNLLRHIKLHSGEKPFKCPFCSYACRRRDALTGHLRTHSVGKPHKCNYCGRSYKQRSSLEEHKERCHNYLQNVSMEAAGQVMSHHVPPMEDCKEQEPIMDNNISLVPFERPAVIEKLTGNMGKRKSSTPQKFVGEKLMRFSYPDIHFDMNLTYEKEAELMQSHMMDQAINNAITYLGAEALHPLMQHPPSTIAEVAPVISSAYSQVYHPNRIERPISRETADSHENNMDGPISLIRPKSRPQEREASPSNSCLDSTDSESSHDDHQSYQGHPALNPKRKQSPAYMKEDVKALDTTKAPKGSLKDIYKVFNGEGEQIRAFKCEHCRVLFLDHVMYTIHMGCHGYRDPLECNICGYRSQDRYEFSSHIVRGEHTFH
T6 sequence (Q96SW2 whole entry): as the sequence (Q96SW2 whole entry) above
T6 sequence (Q16531 whole entry partner): as the sequence (Q16531 whole entry partner) above

[9] = test system: Human acute T lymphocytic leukemia cell (Molt4); experiment: Tumor cell proliferation inhibition (CellTiter-Meiluncell luminescent cell viability assay); details: MOLT-4, 96 h; for inhibition at 0.01 µM: read-out: Inhibition Rate at 10 nM (%); for inhibition at 0.5 µM: read-out: Inhibition Rate at 500 nM (%)
[10] = 24 hours treatment, compounds at 50 nM and 500 nM (concentration behind the class not stated)
[11] = Western blot, 24 hours of compound treatment, compounds tested at 50 nM and 500 nM (concentration for the table not stated)

Row | SMILES | inhibition at 0.01 µM [1] [%] | inhibition at 0.5 µM [1] [%] | inhibition at 0.01 µM [2] [%] | inhibition at 0.5 µM [2] [%] | inhibition at 0.5 µM [3] [%] | inhibition at 2 µM [3] [%] | GSPT1 substrate protein remaining % (GSPT1; [10]) | inhibition at 0.01 µM [4] [%] | inhibition at 0.5 µM [4] [%] | inhibition at 0.01 µM [5] [%] | inhibition at 0.5 µM [5] [%] | inhibition at 0.01 µM [6] [%] | inhibition at 0.5 µM [6] [%] | inhibition at 0.01 µM [7] [%] | inhibition at 0.5 µM [7] [%] | inhibition at 0.01 µM [8] [%] | inhibition at 0.5 µM [8] [%] | IKZF3 substrate protein remaining % (IKZF3; [10]) | inhibition at 0.01 µM [9] [%] | inhibition at 0.5 µM [9] [%] | other results
1 | O=C1CCC(N2Cc3cc(CN4CC=C(c5cccs5)CC4)ccc3C2=S)C(=O)N1 (stereo not drawn) [GT-08171, 3-(5-((4-(thiophen-2-yl)-3,6-dihydropyridin-1(2H)-yl)methyl)-1-thioxoisoindolin-2-yl)piperidine-2,6-dione] | 50 to 60 | 80 to 100 | 20 to 30 | 80 to 100 | 60 to 80 | 80 to 100 | A (0% ≤ substrate protein remaining % ≤ 80%) | 60 to 80 | 80 to 100 | 20 to 30 | 70 to 80 | 30 to 40 | 80 to 100 | 40 to 50 | 80 to 100 | 70 to 80 | 80 to 100 | A (0% ≤ substrate protein remaining % ≤ 80%) | 80 to 100 | 80 to 100 | IKZF 1 substrate protein remaining % (IKZF1; [10]): A (0% ≤ substrate protein remaining % ≤ 80%); CK1α substrate protein remaining % (CK1α; [10]): A (0% ≤ substrate protein remaining % ≤ 80%); Wee1 substrate protein remaining % (WEE1; [10]): A (0% ≤ substrate protein remaining % ≤ 80%); IKZF2 substrate protein remaining % (IKZF2; [10]): A (0% ≤ substrate protein remaining % ≤ 80%)
2 | O=C1CCC(N2Cc3cc(CN4CC=C(c5ccsc5)CC4)ccc3C2=S)C(=O)N1 (stereo not drawn) [GT-08172, 3-(5-((4-(thiophen-3-yl)-3,6-dihydropyridin-1(2H)-yl)methyl)-1-thioxoisoindolin-2-yl)piperidine-2,6-dione] | 40 to 50 | – | 20 to 30 | 80 to 100 | 80 to 100 | 80 to 100 | A (0% ≤ substrate protein remaining % ≤ 80%) | 60 to 80 | 80 to 100 | 50 to 60 | 70 to 80 | 20 to 30 | 80 to 100 | 50 to 60 | 80 to 100 | 60 to 70 | 80 to 100 | A (0% ≤ substrate protein remaining % ≤ 80%) | 60 to 70 | 80 to 100 | Inhibition Rate at 500 nM (%) ([1]; MM.1S, 500 nM, 96 hours): la10; IKZF 1 substrate protein remaining % (IKZF1; [10]): A (0% ≤ substrate protein remaining % ≤ 80%); CK1α substrate protein remaining % (CK1α; [10]): A (0% ≤ substrate protein remaining % ≤ 80%); Wee1 substrate protein remaining % (WEE1; [10]): A (0% ≤ substrate protein remaining % ≤ 80%); IKZF2 substrate protein remaining % (IKZF2; [10]): A (0% ≤ substrate protein remaining % ≤ 80%)
3 | O=C1CCC(N2Cc3cc(CN4CC=C(c5cccc(F)c5Cl)CC4)ccc3C2=S)C(=O)N1 (stereo not drawn) [GT-08206, 3-(5-((4-(2-chloro-3-fluorophenyl)-3,6-dihydropyridin-1(2H)-yl)methyl)-1-thioxoisoindolin-2-yl)piperidine-2,6-dione] | 50 to 60 | 80 to 100 | 80 to 100 | 80 to 100 | 40 to 53 | 80 to 100 | – | 80 to 100 | 80 to 100 | 0 to 5 | 80 to 100 | 60 to 70 | 80 to 100 | 50 to 60 | 80 to 100 | 80 to 100 | 80 to 100 | – | 70 to 80 | 80 to 100 | GSPT1 substrate protein remaining % (GSPT1; [11]): A (0% ≤ substrate protein remaining % ≤ 80%); IKZF3 substrate protein remaining % (IKZF3; [11]): A (0% ≤ substrate protein remaining % ≤ 80%); IKZF 1 substrate protein remaining % (IKZF1; [11]): A (0% ≤ substrate protein remaining % ≤ 80%); CK1α substrate protein remaining % (CK1α; [11]): A (0% ≤ substrate protein remaining % ≤ 80%); Wee1 substrate protein remaining % (WEE1; [11]): A (0% ≤ substrate protein remaining % ≤ 80%); IKZF2 substrate protein remaining % (IKZF2; [11]): A (0% ≤ substrate protein remaining % ≤ 80%)
4 | Cc1cc(C2=CCN(Cc3ccc4c(c3)CN(C3CCC(=O)NC3=O)C4=S)CC2)cs1 (stereo not drawn) [GT-08327, 3-(5-((4-(5-methylthiophen-3-yl)-3,6-dihydropyridin-1(2H)-yl)methyl)-1-thioxoisoindolin-2-yl)piperidine-2,6-dione] | 40 to 50 | 80 to 100 | 10 to 20 | 80 to 100 | 53 to 60 | 80 to 100 | A (0% ≤ substrate protein remaining % ≤ 80%) | 40 to 60 | 80 to 100 | 0 to 5 | 70 to 80 | 30 to 40 | 80 to 100 | 20 to 30 | 80 to 100 | 30 to 40 | 80 to 100 | A (0% ≤ substrate protein remaining % ≤ 80%) | 10 to 20 | 80 to 100 | IKZF 1 substrate protein remaining % (IKZF1; [10]): A (0% ≤ substrate protein remaining % ≤ 80%); CK1α substrate protein remaining % (CK1α; [10]): A (0% ≤ substrate protein remaining % ≤ 80%); Wee1 substrate protein remaining % (WEE1; [10]): A (0% ≤ substrate protein remaining % ≤ 80%); IKZF2 substrate protein remaining % (IKZF2; [10]): A (0% ≤ substrate protein remaining % ≤ 80%)
5 | O=C1CCC(N2Cc3cc(CN4CCC(c5cccc(F)c5Cl)CC4)ccc3C2=S)C(=O)N1 (stereo not drawn) [GT-08330, 3-(5-((4-(2-chloro-3-fluorophenyl)piperidin-1-yl)methyl)-1-thioxoisoindolin-2-yl)piperidine-2,6-dione] | 20 to 30 | 80 to 100 | 10 to 20 | 70 to 80 | 40 to 53 | 60 to 80 | A (0% ≤ substrate protein remaining % ≤ 80%) | 10 to 18 | 80 to 100 | 10 to 20 | 50 to 60 | 5 to 10 | 80 to 100 | -5 to 0 | 70 to 80 | 5 to 10 | 80 to 100 | A (0% ≤ substrate protein remaining % ≤ 80%) | -5 to 0 | 80 to 100 | IKZF 1 substrate protein remaining % (IKZF1; [10]): A (0% ≤ substrate protein remaining % ≤ 80%); CK1α substrate protein remaining % (CK1α; [10]): A (0% ≤ substrate protein remaining % ≤ 80%); Wee1 substrate protein remaining % (WEE1; [10]): A (0% ≤ substrate protein remaining % ≤ 80%); IKZF2 substrate protein remaining % (IKZF2; [10]): A (0% ≤ substrate protein remaining % ≤ 80%)
